# Legend:
# [1] = Inhibitory potency against glucosidase was determined.; design: species or system Saccharomyces cerevisiae
# [2] = biological target: Lysosomal alpha-glucosidase (Homo sapiens, UniProt P10253); test: Inhibitory potency for alpha-glucosidase was determined at concentration up to 3.0 mM; No inhibition; design: species or system Saccharomyces cerevisiae
SMILES,Ki [1],Ki [2]
NCC(=O)N1C[C@H](O)[C@@H](O)[C@H](O)[C@H]1CO,23 µM,–
OC[C@@H]1[C@@H](O)[C@H](O)[C@@H](O)CN1Cc1ccccc1,–,Not Active
